“Also recorded” adds a separate entry of the source.
Columns and labels:
[1] = tested on: NSCs cultured in suspension; test: Phage biopanning (Ph.D.-7 library) against NSCs in suspension; format: binding, murine; details: after three rounds of biopanning; for %, eluted phage clones / Frequency, eluted phage clones: membrane bound phages (MP); for %, internalized phage clones / Frequency, internalized phage clones: internalized clones (IP)
Experimental: (§1) Two days prior cell seeding murine NSCs were mechanically dissociated in order to seed the maximum percentage of stem cells.
(§2) The Ph.D.-7 phage library was used (New England Biolabs), composed of phage clones with random 7-mer peptides fused to the N-terminal of PIII, a minor coat protein of M13 phage.
(§3) Before biopanning experiments against NSCs in adhesion, the phage library was incubated in a Laminin-coated tissue culture dish in order to remove phages with affinity to the Laminin coated plastic surface (negative selection). Mouse Laminin (10 mL at 25 μg/ml concentration) (Roche) was incubated overnight at 37° C. 10^12 cfu of phages were incubated for one hour at 37° C. in pre-warmed Incubation Medium (DMEM supplemented with 0.1% BSA) in Laminin-coated plastic surfaces (setting for adhering NSCs) or plain plastic surfaces (setting for NSCs in suspension). Then incubation Medium and a total volume of five washes of Washing Buffer (DPBS supplemented with 1% BSA and 0.05% Tween-20) were collected and eluted phages were amplified as described in the standard protocol of New England Biolabs.
(§4) 10^12 cfu of the negatively selected phage library were diluted in 10 ml Incubation Medium and pipetted onto the adhering NSCs or NSCs in suspension.
(§5) After 1 hour of incubation at 37° C. cells were washed five times with pre-warmed Washing Buffer, cell membrane bound phages (MP) and internalized clones (IP) were recovered from independent duplicates of differentiating progenies by eluting and/or lysing the cells respectively. The cell surface was stripped by a 5 minutes incubation of 5 ml of Glycine Buffer (0.2 M Glycine-HCl supplemented with 1 mg/ml BSA (pH 2.2)) at RT. Eluted Phages were neutralized with 5 ml of 1 M Tris-HCl buffer (pH 8) and amplified.
(§6) Cells were then lysed with 9 ml of Lysing Buffer (0.1% TEA in PBS) for 5 minutes at RT. Internalized phages were neutralized with 1 ml of 1 M Tris-HCl buffer.
(§7) Neutralized phages were titered by infection of Escherichia coli to monitor the selection. Internalized and eluted phages were amplified separately for another round of selection. Three rounds of positive selection were performed. At round number two and three the biopannings of internalized and eluted phages were performed in different cell cultures (but with identical culture conditions) by collecting the phages of interest (i.e. internalized phages from libraries of internalized phages) and discarding the leftovers.
(§8) After the third round of biopanning, phage clones were randomly picked out from the titer plates and sequenced. Thirty phage plaques per each set of phages were randomly picked for sequencing. A small number of clones wasn't successfully sequenced. […] In the case of panning against NSC in suspension the highest consensus was for KLPGWSG (SEQ ID NO: 10) (47.36 for MP), GETRAPL (SEQ ID NO: 12) (14.28% for IP and 10.52% for MP) and HAIYPRH (SEQ ID NO: 11) (28.57% for IP and 5.26% for MP).

[2] = tested on: murine NSCs; test: Immunofluorescence of differentiated NSC progeny on SAP scaffolds, murine; format: cell-based
Experimental: (§9) In vitro tests were performed as previously described (8), in order to assess whether the biomaterials (assembled hydrogels) obtained with the SAPs of the present invention influenced NSCs adhesion, survival and/or differentiation. SAPeptides (30 μl for each well at a concentration of 10 mg/ml) were assembled into 96 multiwells two hours before cell. Cells (at a concentration of 2×10^4 cells/cm^2) were seeded on the top-surface of each assembled scaffold. Initially, cells were cultured with basal medium supplemented with βFGF (10 ng/ml), added to […]. At 3 days in vitro (DIV), βFGF medium was replaced with Leukemia Inhibitory Factor (LIF, Chemicon) (20 ng/ml) and Brain Derived Neurotrophic Factor (BDNF, Peprotech) (20 ng/ml). Fresh medium was added every three days. For both viability and differentiation assays positive and negative controls consisted of Cultrex-BME® substrate (R&D systems) (1:100 dilution in basal medium) and untreated bottom well surfaces respectively. Cell viability was quantified via CellTiter 96® Aqueous Proliferation Assay (Promega) at 7 DIV as recommended in the Promega protocol. After calibrating the linear response between the cell number and absorbance values, proliferated cell populations were quantified (n=5) by using a Vmax microplate reader (Molecular Devices) at 490 nm wavelength. Values, reported as means±standard error of the mean, were blanked to their respective controls consisting of same substrates and cell culture media without cells.
(§10) Immunofluorescence tests were performed for assaying the phenotypes of the differentiated human and murine NSC progenies. In the case of KLP and Ac-KLP just murine NSC have been used. Ac-KLP and KLP scaffolds were prepared at different concentrations in order to display three different stiffness values (viz. 100, 500 and 1000 Pa). This was done to assess the influence of scaffold concentration (and consequently its stiffness) over NSC differentiation. All the other peptides were tested at 1% v/w concentration instead. The following antibodies were used: rabbit polyclonal against GFAP (1:500, DakoCytomation) for astrocytes, mouse monoclonal against βIII-Tubulin (1:500, Covance) for neurons, mouse monoclonal against GalC (1:200, Chemicon) and O4 (1:200, Chemicon) for oligodendrocyes. Secondary Abs were Goat anti Mouse Alexa 488 (1:1000, Molecular Probes), Goat anti Mouse Cy3 (1:1000, Jackson Immunoresearch), Goat anti Rabbit Cy3 (1:1000, Jackson Immunoresearch). Cell nuclei were counterstained with DAPI (Molecular Probes). Quantitative analyses were performed by counting 100-300 cells for each of 9 randomly chosen fields over a total of 3 independent experiments. Phase contrast and fluorescence images of the adhering cells were acquired via Zeiss microscopes Axioplan 2 and ApoTome System at one week after seeding.

[3] = tested on: human NSCs; test: Immunofluorescence of differentiated NSC progeny on SAP scaffolds, human; format: cell-based; details: 1% scaffold, compared to Cultrex positive control
Experimental: as §9
as §10, with “Cell nuclei were counterstained with DAPI (Molecular Probes).” left out

[4] = tested on: human NSCs; test: Imaging and cell proliferation assay (CellTiter 96 MTS) on assembled hydrogels, human NSCs; format: cell-based; details: 7 DIV; for cell viability / proliferated cell population (MTS): scaffolds 10 mg/ml, vs control, P<0.03
Experimental: as §9

[5] = tested on: murine NSCs; test: Imaging and cell proliferation assay (CellTiter 96 MTS) on assembled hydrogels, murine NSCs; format: cell-based; details: 7 DIV; for cell viability / proliferated cell population (MTS): scaffolds 10 mg/ml, vs control, P<0.005
Experimental: as §9

[6] = tested on: murine NSCs in adhesion (Laminin coated dishes); test: Phage biopanning (Ph.D.-7 library) against adhering NSCs; format: binding; details: for Frequency, eluted phage clones / Frequency, internalized phage clones: clones sequenced after three rounds of biopanning; for Frequency, eluted phage clones / %, eluted phage clones: cell membrane bound phages (MP); for %, eluted phage clones / %, internalized phage clones: consensus after three rounds of biopanning; for %, internalized phage clones / Frequency, internalized phage clones: internalized clones (IP)
Experimental: as §1
NSCs, three million per plate, were seeded over Laminin coated 10 cm Petri dishes (Falcon). After an overnight incubation in 10 ml of βFGF supplemented (10 ng/ml) neural basal media, cells were washed with pre-warmed Incubation Medium.
as §2, §3, §4, §5, §6, §7, §8

[7] = 1% scaffold, compared to Cultrex positive control

Substance | Frequency, eluted phage clones [6] | %, eluted phage clones [6] | %, internalized phage clones [6] | Frequency, internalized phage clones [6] | other results
ALTPWAF (Prepared by synthesis) [heptapeptide domain found by phage biopanning against NSCs] |  |  |  |  | %, eluted phage clones [1]: 10.52%; Frequency, eluted phage clones [1]: 2
Ac-FAQRVPPGGGLDLKLDLKLDLK-CONH2 (Ac-FAQRVPPGGGLDLKLDLKLDLK-NH2) |  |  |  |  | number of neurons (βIII-Tubulin) obtained [2, 7]: significantly higher; number of oligodendrocytes (GalC/O4) obtained [2, 7]: significantly higher; number of neurons (βIII-Tubulin) obtained [3]: significantly higher; number of oligodendrocytes (GalC/O4) obtained [3]: significantly higher; cell morphology, adhesion and spreading on assembled hydrogels [4]: spread and branched cells; cell viability / proliferated cell population (MTS) [4]: cell population was bigger; cell morphology, adhesion and spreading on assembled hydrogels [5]: spread and branched cells; cell viability / proliferated cell population (MTS) [5]: cell population was bigger
FAQRVPP (Prepared by synthesis) [heptapeptide domain found by phage biopanning against NSCs] | 15 | 62.5% | 53.5% |  | 
GETRAPL (Prepared by synthesis) [heptapeptide domain found by phage biopanning against NSCs] |  |  |  |  | %, internalized phage clones [1]: 14.28%; Frequency, internalized phage clones [1]: 2; %, eluted phage clones [1]: 10.52%; Frequency, eluted phage clones [1]: 2
GKPMPPM (Prepared by synthesis) [heptapeptide domain found by phage biopanning against NSCs] |  |  |  |  | %, eluted phage clones [1]: 10.52%; Frequency, eluted phage clones [1]: 2
HAIYPRH (Prepared by synthesis) [heptapeptide domain found by phage biopanning against NSCs] |  |  |  |  | %, internalized phage clones [1]: 28.57%; Frequency, internalized phage clones [1]: 4; %, eluted phage clones [1]: 5.26%; Frequency, eluted phage clones [1]: 1
KLPGWSG (Prepared by synthesis) [heptapeptide domain found by phage biopanning against NSCs] |  |  |  |  | %, eluted phage clones [1]: 47.36%; Frequency, eluted phage clones [1]: 9
LQAIPRN (Prepared by synthesis) [heptapeptide domain found by phage biopanning against NSCs] |  |  | 3.5% | 1 | 
LTTGSGS | 1 | 4.2% |  |  | 
NH2-KLPGWSGGGGLDLKLDLKLDLK-CONH2 (H-KLPGWSGGGGLDLKLDLKLDLK-NH2) |  |  |  |  | differentiated neurons (βIIITubulin positive cells) in correspondence of stiffness reductions ([2]; scaffold stiffness 100, 500 and 1000 Pa): significant increments; cell morphology, adhesion and spreading on assembled hydrogels [5]: fostered NSCs adhesion and spreading similarly to FAQ
NH2-QHLPRDHGGGLDLKLDLKLDLK-CONH2 (H-QHLPRDHGGGLDLKLDLKLDLK-NH2) |  |  |  |  | cell viability / proliferated cell population (MTS) [4]: significantly fostered cell viability; also recorded: significantly favored; cell viability / proliferated cell population (MTS) [5]: significantly fostered cell viability; also recorded: significantly favored
QHLPRDH (Prepared by synthesis) [heptapeptide domain found by phage biopanning against NSCs] | 2 | 8.3% | 14.2% | 4 | 
SASHWQI (Prepared by synthesis) [heptapeptide domain found by phage biopanning against NSCs] |  |  | 3.5% | 1 | 
SILPYPY (Prepared by synthesis) [heptapeptide domain found by phage biopanning against NSCs] |  |  |  |  | %, internalized phage clones [1]: 14.28%; Frequency, internalized phage clones [1]: 2
SLPKLPP (Prepared by synthesis) [heptapeptide domain found by phage biopanning against NSCs] |  |  | 3.5% | 1 | 
SSELVTH | 1 | 4.2% |  |  | 
SSLSVND (Prepared by synthesis) [heptapeptide domain found by phage biopanning against NSCs] | 1 | 4.2% | 10.7% | 3 | 
TAVNSDA | 1 | 4.2% |  |  | 
TPLSSHS (Prepared by synthesis) [heptapeptide domain found by phage biopanning against NSCs] |  |  | 3.5% | 1 | 
TPPFAAW | 1 | 4.2% |  |  | 
TTTPTTP | 1 | 4.2% |  |  | 
YIIPMHD (Prepared by synthesis) [heptapeptide domain found by phage biopanning against NSCs] | 1 | 4.2% | 3.5% | 1 | 
YRMPIWP (Prepared by synthesis) [heptapeptide domain found by phage biopanning against NSCs] |  |  | 3.5% | 1 | 

— patent US9273101B2, “Functionalized biomaterials for tissue regeneration” (Nanomed3D S.R.L., priority 2011, dated 2016)
